For data set [1], the system named is 3T3-L1 adipocytes. In words: Fatty acid oxidation (palmitate-induced O2 consumption, Seahorse XF24) in adipocytes. Type of data set: cell-based, mouse. To be noted: 24-hour Met-Leu treatment.
Data set [2] concerns adipocytes (3T3-L1) and myotubes (C2C12). In words: Glucose utilization (extracellular acidification), cell type not stated. Type of data set: cell-based, mouse. To be noted: compound alone. The method, then: In the absence of a fatty acid source and oxidative metabolism, glycolysis and subsequent lactate production results in extracellular acidification, which was also measured using a Seahorse Bioscience XF24 analyzer. Cells were prepared and equilibrated similar to the methods described above for fatty acid oxidation, with the exclusion of carnitine from the medium. Following instrument equilibration and three baseline measurements, glucose was injected to a final concentration of 10 mM in each well. Measurements were taken as described above utilizing the sensors for extracellular acidification rather than O2 consumption. Insulin (final concentration of 5 nM) was added to some wells as a positive control. Data for each sample were normalized to the pre-glucose injection baseline for that sample and expressed as % change from that baseline. The area under of the curve of extracellular acidification change from baseline for each sample was then calculated and used for subsequent analysis.
In the absence of a fatty acid source and oxidative metabolism, glycolysis and subsequent lactate production results in extracellular acidification, which was also measured using a Seahorse Bioscience XF24 analyzer. […] Data for each sample were normalized to the pre-glucose injection baseline for that sample and expressed as % change from that baseline. […]

The test system of data set [3] is LDL receptor knockout (LDLRKO) mice. The experiment in a line: Planned study in LDL receptor knockout mice with leucine/metformin/nicotinic acid (Example 13). Type of data set: in vivo, mouse.
Data set [4] relates to LDL receptor knockout (Ldlr−/−) mice. The experiment in a line: Ldlr−/− mice on atherogenic diet with leucine/metformin/nicotinic acid (Example 15). Type of data set: in vivo, Mus musculus.
The subject of data set [5] is Sirt1. To be noted: C2C12 myotubes.
The subject of data set [6] is Caenorhabditis elegans. The experiment in a line: Lifespan of C. elegans (Example 10). To be noted: basal conditions; leucine 0.5 mM, nicotinic acid 10 nM. Type of data set: in vivo. The method, then: Eggs were hatched on a starved plate overnight. […] All treatments were added with the indicated concentrations to E. coli the agar plates. […] The worms were maintained at 20° C. throughout the duration of the study. Worms were transferred to new plates daily to eliminate progeny. […] The study was continued until the last animal was dead. Data were analyzed via Kaplan-Meier survival curves using Prism 6 (GraphPad Software) and statistical significance was determined by the Log-rank (Mantel-Cox) test.

Data set [7] relates to patients pre-diagnosed with hyperlipidemia. In words: Planned study in patients: atherosclerotic plaque size by quantitative coronary angiography (Example 9). Type of data set: in vivo, human. Particulars: oral twice a day, 3 years; nicotinic acid 50 mg, leucine 550 mg, resveratrol 50 mg. The method, then: Patients that experience acute chest pain and are pre-diagnosed with hyperlipidemia are admitted for the randomized and double blind study. […] The treatments are administered orally twice a day, for 3 years continuously. The size of atherosclerotic plaque is measured at day 0, months 6, 12, 18, 24, 30 and 36 by quantitative coronary angiography.

In data set [8] the test system is AMPK. To be noted: 3T3-L1 adipocytes.
Data set [9] relates to LDL receptor knockout mice. The experiment in a line: LDL receptor knockout mice on western diet: plasma lipids, atherosclerosis, macrophage infiltration (Example 7). Type of data set: in vivo, mouse. From the text:
LDL receptor knockout (LDLRKO) mice were obtained from Jackson Laboratories (Bar Harbor, Me.), and housed in groups under room temperature in a humidity-controlled environment with a regular light and dark cycle. The mice were provided free access to an atherogenic western diet (WD) containing 0.21% cholesterol (by weight) and 40% calories from fat and water for 4 weeks prior to treatment. For treatment, the mice were given (a) the WD diet alone, (b) WD and 24 g of leucine/kg diet, (c) WD and 24 g of leucine/kg diet and 50 mg nicotinic acid/kg diet, (d) WD and 24 g of leucine/kg diet and 250 mg nicotinic acid/kg diet, or (e) WD and 1000 mg nicotinic acid/kg diet; this is approximately equivalent to a low therapeutic dose of nicotinic acid in hypercholesterolemic humans (˜1,500 mg/day). The treatments were administered for eight weeks continuously.
Blood samples of the mice in all groups were obtained from tails of the mice at following four and eight weeks of administration. The serum/plasma levels of triglyceride, total cholesterol and cholesterol esters were measured. Following treatment, food was removed for four hours and the animals were euthanized.
Blood was collected into EDTA-coated tubes to analyze plasma lipid and cholesterol profiles. Plasma total cholesterol (TC, Pointe Scientific, Canton, Mich.), free cholesterol (FC, Wako, Richmond, Va.) and triglyceride (TG, Wako, Richmond, Va.) concentrations were measured using enzymatic assays according to manufacturer's instructions. Cholesterol ester (CE) was calculated as the difference between TC and FC.
To assess atherosclerosis, the circulatory system was perfused following euthanasia with phosphate-buffered saline (PBS) before removing the heart and aorta. The upper one-third of the heart was dissected and embedded in Optimal Cutting Temperature Compound (Sakura Tissue-Tek, Torrance, Calif.), frozen, and stored at −80° C. Blocks were serially cut at 8 μm intervals and stained with hematoxylin and 0.5% Oil Red O (Sigma-Aldrich) to evaluate aortic sinus atherosclerotic intimal area. Atherosclerotic lesion area and Oil Red O positive area were quantified using Image-Pro Plus software (Media Cybernetics, Bethesda, Md.). Whole aorta (from sinotubular junction to iliac bifurcate) was dissected and fixed in 10% formalin, and the adventitia was cleaned. Aortas were opened along the longitudinal axis and pinned onto black silicon elastomer (Rubber-Cal, Santa Ana, Calif.) for the quantification of atherosclerotic lesion area. The percentage of total aortic surface covered with atherosclerotic lesions was quantified by Image-Pro Plus software (Media Cybernetics, Bethesda, Md.) and used to determine the total lesion area.
To assess macrophage infiltration, Sections of aortic sinus were immuno-stained with rat monoclonal antibody against macrophage-specific CD68 (Clone FA11, 1:75, AbD Serotec, Raleigh, N.C.) followed by staining with alkaline phosphatase-conjugated mouse anti-rat (for CD68, 1:50) secondary antibodies (Jackson ImmunoResearch laboratories, West Grove, Pa.). Control slides contain no primary antibody. The CD68-positive areas were analyzed using Image-Pro Plus software (Media Cybernetics, Bethesda, Md.).

In data set [10] the test system is patients pre-diagnosed with hyperlipidemia. In words: Planned study in hyperlipidemic patients: lipids and cutaneous vasodilation (Example 8). To be noted: for triglyceride, LDL, cholesterol and HDL levels compared to day 0: oral twice a day, 60 days. Type of data set: in vivo, human. The method, then: Patients that are pre-diagnosed with hyperlipidemia are admitted for the randomized and double blind study. […] The treatments are administered orally twice a day, for 60 days continuously. […] The serum/plasma levels of triglyceride, cholesterol, LDL and HDL are measured. Cutaneous vasodilation is measured by laser-Doppler flowmeter and the discomfort level described by the patients.

The test system of data set [11] is C2C12 myotubes. The experiment in a line: Glucose utilization (extracellular acidification response to glucose) in myotubes. Type of data set: cell-based, mouse.
The subject of data set [12] is C2C12 myotubes. Particulars: Mooney et al. 2008; cited from earlier work.
Where [13] appears, read: 24 hours, nicotinic acid 10 nM, leucine 0.5 mM, resveratrol 200 nM.
The mark [14] stands for this setting: nicotinic acid 50 mg, leucine 550 mg, resveratrol 50 mg.

`c1cc(-c2cnn3cc(-c4ccc(OCCN5CCCCC5)cc4)cnc23)ccn1` [Compound C]: the “effect of the AMPK inhibitor on the Met-Leu increase in palmitate-induced fatty acid oxidation” value in data set [1] was “completely blocked this increase”.

Consider `N=C(N)N` [Guanidine], for which the “no-effect threshold for stimulation of glucose utilization” value in [2] is 0.1 to 1 µM.

Consider `O=C(O)c1cccnc1` [nicotinic acid], for which the “plasma insulin and HOMAIR index” value in data set [3] (diet doses: metformin 1.5 g/kg alone or 0.25 g/kg in combinations, nicotinic acid 1000 mg/kg alone or 50 mg/kg in combinations, leucine 24 g/kg) was “high plasma insulin and HOMAIR index”. Also, the “atherosclerotic lesion size and aortic macrophage infiltration relative to western diet alone” value in [3] (doses as E112) was “decrease atherosclerotic lesion size and decrease in aortic macrophage infiltration”. The fasting blood glucose result in [4] (8 weeks, nicotinic acid 1000 mg/kg diet, or leucine 24 g/kg + metformin 0.5 g/kg + nicotinic acid 50 mg/kg diet, vs atherogenic diet) is “no change”. In addition, in data set [4] (Day 56, doses as E126), the “plasma LDL cholesterol” value was “significantly lower”, the plasma cholesterol result is recorded as “significantly lower” and the plasma triglycerides entry is “significantly lower”. In addition, in data set [4] (doses as E126), the “Oil Red O staining area in the heart and aorta” value was “significantly less Oil Red O staining area”; the “atherosclerosis (histological images of heart)” value is on record as “reduced”; the fasting plasma insulin entry is “no change”. Further, in data set [5], the “concentrations that alone exert no effect (dose-response study)” value is reported as < 100 nM. Besides, the “increase in Sirt1 levels” value in data set [5] (setting [13]) is given as “did not have a significant effect”. In addition, the effect on lifespan entry in data set [6] is listed as “no independent effect”. For the same compound, the “size of atherosclerotic plaque compared to day 0” value in data set [7] is on record as “similar, without statistically significant difference”. Besides, the “concentrations that alone exert no effect (dose-response study)” value in data set [8] is listed as < 100 nM. For the same compound, the “AMPK activation (P-AMPK/AMPK)” value in [8] (setting [13]) is given as “no significant effect”. Further, the “decrease in aortic macrophage infiltration (CD68 positive area)” value in data set [9] (eight weeks, doses as E77) was ~50%. The “decrease in atherosclerotic lesion size (lesion and lipid area)” value in [9] (eight weeks, nicotinic acid 1,000 mg/kg diet, leucine 24 g/kg diet, or leucine + nicotinic acid 50 mg/kg diet, vs western diet alone) is given as ~50%. Besides, in data set [9] (four weeks, doses as E73), the “decrease in plasma cholesterol esters” value is recorded as 28% and the “decrease in plasma triglycerides” value amounted to 32%. The “decrease in plasma total cholesterol” value in data set [9] (four weeks, western diet + nicotinic acid 1,000 mg/kg diet, leucine 24 g/kg diet, or leucine + nicotinic acid 50 or 250 mg/kg diet) came to 20%. For the same compound, in data set [10] (setting [14]), the “cutaneous vasodilation compared to 1500 mg nicotinic acid” value is listed as “lower”; the “triglyceride, LDL, cholesterol and HDL levels compared to day 0” value is reported as “similar, without statistically significant difference”. Besides, in data set [10] (nicotinic acid 1500 mg alone), the “cutaneous vasodilation compared to all other groups” value is recorded as “significant higher cutaneous vasodilation”; the “triglyceride, LDL, cholesterol and HDL levels compared to day 0” value was “significantly lower triglyceride, LDL and cholesterol levels, and significantly higher HDL level”.

Turning to `CC(C)=CCN=C(N)N` [galegine], the “increase in insulin-stimulated glucose utilization” value in data set [11] (C2C12 myotubes, 5 nM insulin, galegine 5 μM, leucine 0.5 mM) is listed as “no effect”. Moreover, the “concentrations with no independent effect on basal or insulin-stimulated glucose utilization (dose response curves)” value in data set [11] (galegine alone) was “up to 500 μM”. Moreover, in data set [12], the “concentration below which published literature shows no effect” value was < 100 µM.
